Experimental data as given in article PMC6063804 (EJNMMI Research, 2018).
Where two headings read alike, the source gives them in different places.

Experiments:
NMDA-R ion channel site = system: NMDA-R ion channel site; parameters: method as in PMID 26325093; conditions: rats, 3 mg ∙ kg^−1 IV, cited from earlier work
ion channel of NMDA-R = molecular target: ion channel of NMDA-R; parameters: method as in PMID 25648682; conditions: unlabelled compounds; rat forebrain membranes; read-out: concentrations that inhibit specific binding of [^3H]MK-801; cited from earlier work
ion channel site = system: ion channel site; parameters: method as in PMID 26325093; conditions: displacement binding studies; cited from earlier work
NMDA-R = system: NMDA-R; parameters: method as in PMID 26661185; conditions: humans; intravenous ketamine 0.3 mg · kg^−1; on average; cited from earlier work
PCP binding site = conditions: cited from earlier work
[1] = Plasma ketamine concentration during PET; format: in vivo, human
Text: The final arterial plasma input function was derived using both continuous and discrete arterial blood data. The input function was corrected for plasma to whole blood ratio, metabolites, and time delay. For each scan, two additional plasma input functions were generated to investigate the effect of within-subject and between-subject variability in plasma data. For the within-subject averaged input function, the mean of PET1 and PET2 [^18F]PK-209 parent fractions per subject were used at each of the eight sample timepoints for both scans. For the population-averaged input function, the mean parent fractions for all five subjects in the TRT and ketamine groups (i.e., 10 scans) were taken at each timepoint. The manual arterial blood samples were also used for assessment of the plasma ketamine concentration. The area under the ketamine concentration–time curve was estimated by means of the trapezoidal rule.
(§1) The (S+)-isomer of ketamine (0.5 mg · kg^−1) was dissolved in NaCl 50 mL and administered intravenously in a pseudo-steady state model with a sub-acute loading dose. First, ketamine was administered for 40 min at a rate of 0.006 mg · kg^−1 · min^−1 followed by a 130 min equilibrium phase at 0.002 mg · kg^−1 · min^−1. [^18F]PK-209 injection and start of PET were performed at 10 min into the equilibrium phase, following 0.26 mg · kg^−1 administration in the preceding 50 min.

[2] = Tolerability of ketamine infusion; format: in vivo, human
Protocol: as §1

[3] = parameters: method as in PMID 18176855; conditions: 1.1 mg ∙ kg^−1 S-ketamine over 75 min; cited from earlier work

Compound: CNC1(c2ccccc2Cl)CCCCC1=O (racemic) [(±)ketamine]
- inhibition of [^3H]MK-801 binding (NMDA-R ion channel site; 1 min post-dosing): 67%
- inhibition of [^3H]MK-801 binding (NMDA-R ion channel site; 20 min post-dose): 19%

Compound: COc1cccc(N(C)C(=N)Nc2cc(SC)ccc2Cl)c1 [GMOM, reference compound]
- K i (ion channel of NMDA-R): 21.7 nM

Compound: C[C@]12N[C@H](Cc3ccccc31)c1ccccc12 [MK-801]
- potency relative to (±)ketamine at the ion channel site (ion channel site): two orders of magnitude more potent

Compound: COc1cccc(N(C)C(=N)Nc2cc(SC)ccc2Cl)c1 [[^11C]GMOM, [11C]N-(2-chloro-5-thiomethylphenyl)-N′-(3-methoxy-phenyl)-N′-methylguanidine]
- reduction of radiotracer net influx rate (Ki) in whole brain gray matter (NMDA-R): 66%

Compound: CSc1cccc(N(C)C(N)=Nc2cc(SCC[18F])ccc2Cl)c1 [[^18F]GE-179]
- block of the PET signal by cold GE-179 (PCP binding site; GE-179 0.6 mg ∙ kg^−1 at steady state, bolus-plus-infusion, anesthetized non-human primates): did not significantly block the PET signal
- specificity of the PET signal (PCP binding site; preclinical in vivo evaluation): largely non-specific

Compound: CNC1(c2ccccc2Cl)CCCCC1=O (stereo not drawn) [ketamine]
- mean plasma ketamine concentration, plateau ([1]; between 20 and 60 min after the start of PET, 0.5 mg ∙ kg^−1 infusion): ~ 100 ng ∙ mL^−1
- mean plasma ketamine concentration ([1]; end of the scan, 160 min since the start of infusion): ~ 70 ng ∙ mL^−1
- tolerability ([2]; S-ketamine 0.5 mg · kg^−1 intravenous infusion, healthy subjects): well tolerated by all subjects
- feelings of dissociation ([2]; at the start of PET scanning): reported by all subjects
- mean plasma concentration [3]: 173 ng/mL
